{
  "source": "paper PMC4189262",
  "about": "(Pharmacognosy Magazine, 2014)",
  "key": {"isolated rat hepatocytes [1]": {"tested_on": "isolated rat hepatocytes", "experiment": "Trypan blue exclusion", "conditions": "60 μM, hepatocytes incubation, vs control"}, "isolated rat hepatocytes [2]": {"tested_on": "isolated rat hepatocytes", "experiment": "Malondialdehyde", "format": "cell-based", "conditions": "60 μM, hepatocytes incubation, vs control"}, "isolated rat hepatocytes [3]": {"tested_on": "isolated rat hepatocytes", "experiment": "Glutathione", "format": "cell-based", "conditions": "60 μM, hepatocytes incubation, vs control"}, "isolated rat hepatocytes [4]": {"tested_on": "isolated rat hepatocytes", "experiment": "Lactate dehydrogenase", "format": "cell-based", "conditions": "60 μM, hepatocytes incubation, vs control"}, "human CYP1A2": {"tested_on": "human CYP1A2", "conditions": "ref Shimada et al. [26]; cited from earlier work"}, "[5]": {"tested_on": "rat pheochromocytoma PC12 cells", "conditions": "limited supply of serum and hydrogen peroxide, ref Hong et al. [14]; cited from earlier work"}},
  "data": [
    {"smiles": "Cn1c(CCCC(=O)O)nc2cc(N(CCCl)CCCl)ccc21", "note": "[Bendamustine]", "values": [
      {"measurement": "reduction of cell viability", "setting": "isolated rat hepatocytes [1]", "result": 33, "unit": "%"},
      {"measurement": "increased MDA level", "setting": "isolated rat hepatocytes [2]", "result": 194, "unit": "%"},
      {"measurement": "depletion of cell GSH", "setting": "isolated rat hepatocytes [3]", "result": 76, "unit": "%"},
      {"measurement": "increased LDH leakage", "setting": "isolated rat hepatocytes [4]", "result": 59, "unit": "%"}
    ]},
    {"smiles": "O=P1(N(CCCl)CCCl)NCCCO1", "note": "(stereo not drawn) [Cyclophosphamide]", "values": [
      {"measurement": "reduction of cell viability", "setting": "isolated rat hepatocytes [1]", "result": 43, "unit": "%"},
      {"measurement": "increased MDA level", "setting": "isolated rat hepatocytes [2]", "result": 184, "unit": "%"},
      {"measurement": "depletion of cell GSH", "setting": "isolated rat hepatocytes [3]", "result": 72, "unit": "%"},
      {"measurement": "increased LDH leakage", "setting": "isolated rat hepatocytes [4]", "result": 100, "unit": "%"}
    ]},
    {"smiles": "O=c1cc(-c2ccc(O)cc2)oc2cc(O)cc(O)c12", "note": "[apigenin]", "values": [
      {"measurement": "inhibitory activity on human CYP1A2", "setting": "human CYP1A2", "result": "inhibitory activity"}
    ]},
    {"smiles": "O=c1cc(-c2ccccc2)oc2cc(O)cc(O)c12", "note": "[chrysin]", "values": [
      {"measurement": "inhibitory activity on human CYP1A2", "setting": "human CYP1A2", "result": "inhibitory activity"}
    ]},
    {"smiles": "O=c1c(O)c(-c2ccccc2)oc2cc(O)cc(O)c12", "note": "[galangin]", "values": [
      {"measurement": "inhibitory activity on human CYP1A2", "setting": "human CYP1A2", "result": "inhibitory activity"}
    ]},
    {"smiles": "O=c1c(-c2ccc(O)cc2)coc2cc(O)cc(O)c12", "note": "[genistein]", "values": [
      {"measurement": "inhibitory activity on human CYP1A2", "setting": "human CYP1A2", "result": "inhibitory activity"}
    ]},
    {"smiles": "O=c1c(O)c(-c2ccc(O)cc2)oc2cc(O)cc(O)c12", "note": "[kaempferol]", "values": [
      {"measurement": "protective effects on oxidative damage", "setting": "[5]", "result": "protective effects"},
      {"measurement": "inhibitory activity on human CYP1A2", "setting": "human CYP1A2", "result": "inhibitory activity"}
    ]},
    {"smiles": "COc1cc(O)c2c(=O)c(O)c(-c3ccc(O)cc3)oc2c1", "note": "[rhamnocitrin, kempferol 7-O-methyl ether]", "values": [
      {"measurement": "protective effects on oxidative damage", "setting": "[5]", "result": "protective effects"}
    ]}
  ]
}
